In patent US20030207886A1, “Preparation containing quinoxaline derivatives” (priority 2000, published 2003):

Assay: Maxima of UV-A and UV-B absorption of quinoxaline derivatives in 2-propanol
Type: physicochemical
Details: 1 mg of substance per 100 ml of solvent; for UV-A (400 320 nm) Max. abs.: absorbance at UV-A maximum; for UV-B (280 320 nm) Max. abs.: absorbance at UV-B maximum; for UV-A (400 320 nm) λ [nm]: wavelength of UV-A maximum; for UV-B (280 320 nm) λ [nm]: wavelength of UV-B maximum
Experimental: The measurement was carried out in 2-propanol at a concentration of 1 mg of substance per 100 ml of solvent.

O=C(O)c1ccc(Nc2cnc3ccccc3n2)cc1
UV-A (400 320 nm) Max. abs.: 0.378 | UV-B (280 320 nm) Max. abs.: 1.141 | UV-A (400 320 nm) λ [nm]: 374.1 nm | UV-B (280 320 nm) λ [nm]: 297.2 nm

CC(C)OC(=O)c1ccc(Nc2cnc3ccccc3n2)cc1
UV-A (400 320 nm) Max. abs.: 0.555 | UV-B (280 320 nm) Max. abs.: 1.262 | UV-A (400 320 nm) λ [nm]: 374.3 nm | UV-B (280 320 nm) λ [nm]: 306.7 nm

CCOC(=O)CCC(NC(=O)c1ccc(Nc2cnc3ccccc3n2)cc1)C(=O)OCC (stereo not shown)
UV-A (400 320 nm) Max. abs.: 0.3076 | UV-B (280 320 nm) Max. abs.: 0.756 | UV-A (400 320 nm) λ [nm]: 380.0 nm | UV-B (280 320 nm) λ [nm]: 307.0 nm

O=c1[nH]c2ccccc2nc1-c1ccccc1
UV-A (400 320 nm) Max. abs.: 0.360 | UV-B (280 320 nm) Max. abs.: 0.373 | UV-A (400 320 nm) λ [nm]: 365.0 nm | UV-B (280 320 nm) λ [nm]: 305.0 nm

Clc1nc2ccccc2nc1-c1ccccc1
UV-A (400 320 nm) Max. abs.: 0.173 | UV-A (400 320 nm) λ [nm]: 335.0 nm

Fc1nc2ccccc2nc1N(c1ncccn1)c1nc2ccccc2nc1F
UV-A (400 320 nm) Max. abs.: 0.446 | UV-A (400 320 nm) λ [nm]: 329.8 nm

Clc1ccc(Nc2cnc3ccccc3n2)c(Cl)c1
UV-A (400 320 nm) Max. abs.: 0.248 | UV-B (280 320 nm) Max. abs.: 0.757 | UV-A (400 320 nm) λ [nm]: 365.2 nm | UV-B (280 320 nm) λ [nm]: 280.7 nm

O=C(c1ccccc1)c1ccccc1Nc1cnc2ccccc2n1
UV-A (400 320 nm) Max. abs.: 0.424 | UV-A (400 320 nm) λ [nm]: 395.4 nm

COc1ccc(Nc2cnc3ccccc3n2)cc1
UV-A (400 320 nm) Max. abs.: 0.306 | UV-B (280 320 nm) Max. abs.: 0.837 | UV-A (400 320 nm) λ [nm]: 386.9− nm | UV-B (280 320 nm) λ [nm]: 291.1 nm

COc1cc(Nc2cnc3ccccc3n2)cc(OC)c1OC
UV-A (400 320 nm) Max. abs.: 0.281 | UV-B (280 320 nm) Max. abs.: 0.679 | UV-A (400 320 nm) λ [nm]: 386.1 nm | UV-B (280 320 nm) λ [nm]: 275.6 nm

COc1cc(Nc2cnc3ccccc3n2)c(C(=O)O)cc1OC
UV-A (400 320 nm) Max. abs.: 0.456 | UV-B (280 320 nm) Max. abs.: 0.455 | UV-A (400 320 nm) λ [nm]: 380.1 nm | UV-B (280 320 nm) λ [nm]: 300.1 nm

O=C(O)c1ccc(Nc2nc3ccccc3nc2-c2ccccc2)cc1
UV-A (400 320 nm) Max. abs.: 0.325 | UV-B (280 320 nm) Max. abs.: 0.452 | UV-A (400 320 nm) λ [nm]: 376.8 nm | UV-B (280 320 nm) λ [nm]: 303.8 nm

FC(F)(F)c1cc(CNc2cnc3ccccc3n2)cc(C(F)(F)F)c1
UV-A (400 320 nm) Max. abs.: 0.192 | UV-A (400 320 nm) λ [nm]: 359.0 nm

FC(F)(F)c1cc(Nc2cnc3ccccc3n2)cc(C(F)(F)F)c1
UV-A (400 320 nm) Max. abs.: 0.262 | UV-A (400 320 nm) λ [nm]: 359.8 nm

COc1cc(Nc2nc3ccccc3nc2-c2ccccc2)cc(OC)c1OC
UV-A (400 320 nm) Max. abs.: 0.175 | UV-B (280 320 nm) Max. abs.: 0.475 | UV-A (400 320 nm) λ [nm]: 390.4 nm | UV-B (280 320 nm) λ [nm]: 287.6 nm

COc1cc(Nc2nc3ccccc3nc2-c2ccccc2)c(C(=O)O)cc1OC
UV-A (400 320 nm) Max. abs.: 0.235 | UV-B (280 320 nm) Max. abs.: 0.635 | UV-A (400 320 nm) λ [nm]: 393.4 nm | UV-B (280 320 nm) λ [nm]: 285.6 nm

CC(C)OC(=O)c1ccc(Nc2nc3ccccc3nc2-c2ccccc2)cc1
UV-A (400 320 nm) Max. abs.: 0.342 | UV-B (280 320 nm) Max. abs.: 0.849 | UV-A (400 320 nm) λ [nm]: 381.9 nm | UV-B (280 320 nm) λ [nm]: 305.3 nm

O=C(OC/C=C/c1ccccc1)c1ccccc1Nc1cnc2ccccc2n1
UV-A (400 320 nm) Max. abs.: 0.469 | UV-A (400 320 nm) λ [nm]: 386.3 nm

CC(=O)c1ccc(Nc2cnc3ccccc3n2)cc1
UV-A (400 320 nm) Max. abs.: 0.622 | UV-B (280 320 nm) Max. abs.: 1.062 | UV-A (400 320 nm) λ [nm]: 374.9 nm | UV-B (280 320 nm) λ [nm]: 314.7 nm

CN(C)c1cnc2ccccc2n1
UV-A (400 320 nm) Max. abs.: 0.413 | UV-A (400 320 nm) λ [nm]: 378.0 nm

CC(C)(C)OC(=O)c1ccc(Nc2cnc3ccccc3n2)cc1
UV-A (400 320 nm) Max. abs.: 0.506 | UV-B (280 320 nm) Max. abs.: 1.172 | UV-A (400 320 nm) λ [nm]: 374.3 nm | UV-B (280 320 nm) λ [nm]: 306.3 nm

CCOC(=O)c1nc2ccccc2[nH]c1=O
UV-A (400 320 nm) Max. abs.: 0.245 | UV-B (280 320 nm) Max. abs.: 0.279 | UV-A (400 320 nm) λ [nm]: 355.8 nm | UV-B (280 320 nm) λ [nm]: 290.0 nm

CCOC(=O)c1nc2ccccc2nc1Cl
UV-A (400 320 nm) Max. abs.: 0.243 | UV-A (400 320 nm) λ [nm]: 322.9 nm

Nc1nc2ccccc2nc1Cl
UV-A (400 320 nm) Max. abs.: 0.427 | UV-A (400 320 nm) λ [nm]: 353.4 nm

c1ccc2nc3c(nc2c1)nc1ccccn13
UV-A (400 320 nm) Max. abs.: 0.411 | UV-A (400 320 nm) λ [nm]: 348.3 nm

Fc1ccc2nc3nc4ccccc4nc3n2c1
UV-A (400 320 nm) Max. abs.: 0.132 | UV-A (400 320 nm) λ [nm]: 344.6 nm

CCc1ccn2c(c1)nc1nc3ccccc3nc12
UV-A (400 320 nm) Max. abs.: 0.536 | UV-A (400 320 nm) λ [nm]: 356.1 nm

CC(=O)c1ccn2c(c1)nc1nc3ccccc3nc12
UV-A (400 320 nm) Max. abs.: 0.533 | UV-A (400 320 nm) λ [nm]: 364.8 nm

O=C(O)c1cc(Nc2cnc3ccccc3n2)cc(C(=O)O)c1
UV-A (400 320 nm) Max. abs.: 0.319 | UV-B (280 320 nm) Max. abs.: 0.887 | UV-A (400 320 nm) λ [nm]: 372.8 nm | UV-B (280 320 nm) λ [nm]: 286.9 nm

COC(=O)c1cc(Nc2cnc3ccccc3n2)cc(C(=O)OC)c1
UV-A (400 320 nm) Max. abs.: 0.322 | UV-B (280 320 nm) Max. abs.: 0.789 | UV-A (400 320 nm) λ [nm]: 368.3 nm | UV-B (280 320 nm) λ [nm]: 287.7 nm

COC(=O)CCc1ccc2nc3nc4ccccc4nc3n2c1
UV-A (400 320 nm) Max. abs.: 0.3747 | UV-A (400 320 nm) λ [nm]: 349.5 nm

Brc1ccc2nc3nc4ccccc4nc3n2c1
UV-A (400 320 nm) Max. abs.: 0.4113 | UV-A (400 320 nm) λ [nm]: 354 nm

CCOC(=O)c1nc2ccccc2nc1Nc1ccc(C(C)=O)cc1
UV-A (400 320 nm) Max. abs.: 1.2265 | UV-A (400 320 nm) λ [nm]: 328.5 nm

CCOC(=O)c1nc2ccccc2nc1Nc1cc(F)c(F)cc1C(=O)O
UV-A (400 320 nm) Max. abs.: 0.1187 | UV-B (280 320 nm) Max. abs.: 0.4067 | UV-A (400 320 nm) λ [nm]: 381.5 nm | UV-B (280 320 nm) λ [nm]: 287.0 nm

O=c1[nH]c2ccccc2nc1/C=C/c1ccccc1
UV-A (400 320 nm) Max. abs.: 0.7324 | UV-A (400 320 nm) λ [nm]: 388.5 nm

Cc1ccc(/C=C/c2nc3ccccc3[nH]c2=O)cc1
UV-A (400 320 nm) Max. abs.: 0.4660 | UV-A (400 320 nm) λ [nm]: 336.0 nm

Nc1nc2ccccc2nc1NC(=O)c1cc(C(F)(F)F)cc(C(F)(F)F)c1
UV-A (400 320 nm) Max. abs.: 0.4130 | UV-A (400 320 nm) λ [nm]: 354.0 nm

c1ccc(CNc2cnc3ccccc3n2)cc1
UV-A (400 320 nm) Max. abs.: 0.2602 | UV-A (400 320 nm) λ [nm]: 364.0 nm

O=C(O)c1ccc(Nc2cnc3ccccc3n2)c(O)c1
UV-A (400 320 nm) Max. abs.: 0.5594 | UV-A (400 320 nm) λ [nm]: 381.0 nm

CCOC(=O)c1ccc(Nc2cnc3ccccc3n2)cc1
UV-A (400 320 nm) Max. abs.: 0.5414 | UV-B (280 320 nm) Max. abs.: 1.2839 | UV-A (400 320 nm) λ [nm]: 375.0 nm | UV-B (280 320 nm) λ [nm]: 306.0 nm

C(#Cc1nc2ccccc2nc1C#Cc1ccccc1)c1ccccc1
UV-A (400 320 nm) Max. abs.: 0.4443 | UV-B (280 320 nm) Max. abs.: 0.8366 | UV-A (400 320 nm) λ [nm]: 385.0 nm | UV-B (280 320 nm) λ [nm]: 294.0 nm

Cc1ccc(S(=O)(=O)c2cnc3ccccc3n2)cc1
UV-A (400 320 nm) Max. abs.: 0.1595 | UV-A (400 320 nm) λ [nm]: 321.0 nm

O=C(/C=C/c1ccccc1)c1cnc2ccccc2n1
UV-A (400 320 nm) Max. abs.: 0.1731 | UV-A (400 320 nm) λ [nm]: 329.0 nm

O=C(/C=C/C=C/c1ccccc1)c1cnc2ccccc2n1
UV-A (400 320 nm) Max. abs.: 1.0497 | UV-B (280 320 nm) Max. abs.: 0.6584 | UV-A (400 320 nm) λ [nm]: 365.0 nm | UV-B (280 320 nm) λ [nm]: 302.0 nm

O=C(/C=C/c1ccc2c(c1)OCO2)c1cnc2ccccc2n1
UV-A (400 320 nm) Max. abs.: 0.5101 | UV-B (280 320 nm) Max. abs.: 0.4556 | UV-A (400 320 nm) λ [nm]: 381.0 nm | UV-B (280 320 nm) λ [nm]: 305.0 nm

CC(C)c1ccc(/C=C/C(=O)c2cnc3ccccc3n2)cc1
UV-A (400 320 nm) Max. abs.: 0.7731 | UV-A (400 320 nm) λ [nm]: 343.0 nm

c1ccc2nc(-c3cnc4ccccc4n3)cnc2c1
UV-A (400 320 nm) Max. abs.: 0.7687 | UV-A (400 320 nm) λ [nm]: 341.0 nm

Brc1cnc2ccccc2n1
UV-A (400 320 nm) Max. abs.: 0.4424 | UV-A (400 320 nm) λ [nm]: 321.0 nm

c1ccc2nc(Oc3cnc4ccccc4n3)cnc2c1
UV-A (400 320 nm) Max. abs.: 0.2587 | UV-A (400 320 nm) λ [nm]: 320.0 nm
